From ChEMBL document CHEMBL3044945, “Synthesis of 1,3,5-trisubstituted pyrazoline nucleus containing compounds and screening for antimicrobial activity” (2012)
In brackets after ≈: the same amount, converted by molar mass.

Tests used:
Type in all cases: functional
Pseudomonas fluorescens [1] = assay: Antibacterial activity against Pseudomonas fluorescens MTCC 2421 after 24 to 48 hr by tube dilution method
Pseudomonas fluorescens [2] = assay: Antibacterial activity against Pseudomonas fluorescens MTCC 2421 at 500 ug/ml after 48 hr by cup-plate method; details: MTCC 2421, 48 h, read-out: DIZ
Bacillus subtilis [3] = assay: Antibacterial activity against Bacillus subtilis MTCC 441 at 750 ug/ml after 48 hr by cup-plate method; details: MTCC 441, 48 h, read-out: DIZ
Escherichia coli [4] = assay: Antibacterial activity against Escherichia coli MTCC 1573 at 250 ug/ml after 48 hr by cup-plate method; details: MTCC 1573, 48 h, read-out: DIZ
Bacillus pumilus [5] = assay: Antibacterial activity against Bacillus pumilus MTCC 1456 at 250 ug/ml after 48 hr by cup-plate method; details: MTCC 1456, 48 h, read-out: DIZ
Pseudomonas aeruginosa [6] = assay: Antibacterial activity against Pseudomonas aeruginosa MTCC 424 at 500 ug/ml after 48 hr by cup-plate method; details: MTCC 424, 48 h, read-out: DIZ
Escherichia coli [7] = assay: Antibacterial activity against Escherichia coli MTCC 1573 at 1250 ug/ml after 48 hr by cup-plate method; details: MTCC 1573, 48 h, read-out: DIZ
Escherichia coli [8] = assay: Antibacterial activity against Escherichia coli MTCC 1573 at 1000 ug/ml after 48 hr by cup-plate method; details: MTCC 1573, 48 h, read-out: DIZ
Pseudomonas aeruginosa [9] = assay: Antibacterial activity against Pseudomonas aeruginosa MTCC 424 at 1250 ug/ml after 48 hr by cup-plate method; details: MTCC 424, 48 h, read-out: DIZ
Staphylococcus aureus [10] = assay: Antibacterial activity against Staphylococcus aureus MTCC 1430 at 750 ug/ml after 48 hr by cup-plate method; details: MTCC 1430, 48 h, read-out: DIZ
Pseudomonas aeruginosa [11] = assay: Antibacterial activity against Pseudomonas aeruginosa MTCC 424 after 24 to 48 hr by tube dilution method
Bacillus subtilis [12] = assay: Antibacterial activity against Bacillus subtilis MTCC 441 at 500 ug/ml after 48 hr by cup-plate method; details: MTCC 441, 48 h, read-out: DIZ
Pseudomonas aeruginosa [13] = assay: Antibacterial activity against Pseudomonas aeruginosa MTCC 424 at 250 ug/ml after 48 hr by cup-plate method; details: MTCC 424, 48 h, read-out: DIZ
Aspergillus niger [14] = assay: Antifungal activity against Aspergillus niger MTCC 2546 at 1250 ug/ml after 48 hr by cup-plate method; details: MTCC 2546, 48 h, read-out: DIZ
Bacillus pumilus [15] = assay: Antibacterial activity against Bacillus pumilus MTCC 1456 at 500 ug/ml after 48 hr by cup-plate method; details: MTCC 1456, 48 h, read-out: DIZ
Staphylococcus aureus [16] = assay: Antibacterial activity against Staphylococcus aureus MTCC 1430 at 500 ug/ml after 48 hr by cup-plate method; details: MTCC 1430, 48 h, read-out: DIZ
Bacillus subtilis [17] = assay: Antibacterial activity against Bacillus subtilis MTCC 441 after 24 to 48 hr by tube dilution method
Pseudomonas fluorescens [18] = assay: Antibacterial activity against Pseudomonas fluorescens MTCC 2421 at 750 ug/ml after 48 hr by cup-plate method; details: MTCC 2421, 48 h, read-out: DIZ
Pseudomonas aeruginosa [19] = assay: Antibacterial activity against Pseudomonas aeruginosa MTCC 424 at 1000 ug/ml after 48 hr by cup-plate method; details: MTCC 424, 48 h, read-out: DIZ
Pseudomonas aeruginosa [20] = assay: Antibacterial activity against Pseudomonas aeruginosa MTCC 424 at 100 ug/ml after 48 hr by cup-plate method; details: MTCC 424, 48 h, read-out: DIZ
Bacillus pumilus [21] = assay: Antibacterial activity against Bacillus pumilus MTCC 1456 after 24 to 48 hr by tube dilution method
Bacillus subtilis [22] = assay: Antibacterial activity against Bacillus subtilis MTCC 441 at 250 ug/ml after 48 hr by cup-plate method; details: MTCC 441, 48 h, read-out: DIZ
Pseudomonas aeruginosa [23] = assay: Antibacterial activity against Pseudomonas aeruginosa MTCC 424 at 750 ug/ml after 48 hr by cup-plate method; details: MTCC 424, 48 h, read-out: DIZ
Staphylococcus aureus [24] = assay: Antibacterial activity against Staphylococcus aureus MTCC 1430 at 1000 ug/ml after 48 hr by cup-plate method; details: MTCC 1430, 48 h, read-out: DIZ
Bacillus subtilis [25] = assay: Antibacterial activity against Bacillus subtilis MTCC 441 at 1250 ug/ml after 48 hr by cup-plate method; details: MTCC 441, 48 h, read-out: DIZ
Staphylococcus aureus [26] = assay: Antibacterial activity against Staphylococcus aureus MTCC 1430 at 250 ug/ml after 48 hr by cup-plate method; details: MTCC 1430, 48 h, read-out: DIZ
Aspergillus niger [27] = assay: Antifungal activity against Aspergillus niger MTCC 2546 at 1000 ug/ml after 48 hr by cup-plate method; details: MTCC 2546, 48 h, read-out: DIZ
Bacillus subtilis [28] = assay: Antibacterial activity against Bacillus subtilis MTCC 441 at 100 ug/ml after 48 hr by cup-plate method; details: MTCC 441, 48 h, read-out: DIZ
Penicillium chrysogenum [29] = assay: Antifungal activity against Penicillium chrysogenum MTCC 161 at 1000 ug/ml after 48 hr by cup-plate method; details: MTCC 161, 48 h, read-out: DIZ
Micrococcus luteus [30] = assay: Antibacterial activity against Micrococcus luteus MTCC 1538 at 250 ug/ml after 48 hr by cup-plate method; details: MTCC 1538, 48 h, read-out: DIZ
Aspergillus niger [31] = assay: Antifungal activity against Aspergillus niger MTCC 2546 at 250 ug/ml after 48 hr by cup-plate method; details: MTCC 2546, 48 h, read-out: DIZ
Escherichia coli [32] = assay: Antibacterial activity against Escherichia coli MTCC 1573 at 750 ug/ml after 48 hr by cup-plate method; details: MTCC 1573, 48 h, read-out: DIZ
Escherichia coli [33] = assay: Antibacterial activity against Escherichia coli MTCC 1573 at 500 ug/ml after 48 hr by cup-plate method; details: MTCC 1573, 48 h, read-out: DIZ
Penicillium chrysogenum [34] = assay: Antifungal activity against Penicillium chrysogenum MTCC 161 at 1250 ug/ml after 48 hr by cup-plate method; details: MTCC 161, 48 h, read-out: DIZ
Aspergillus niger [35] = assay: Antifungal activity against Aspergillus niger MTCC 2546 at 500 ug/ml after 48 hr by cup-plate method; details: MTCC 2546, 48 h, read-out: DIZ
Micrococcus luteus [36] = assay: Antibacterial activity against Micrococcus luteus MTCC 1538 at 1250 ug/ml after 48 hr by cup-plate method; details: MTCC 1538, 48 h, read-out: DIZ
Bacillus subtilis [37] = assay: Antibacterial activity against Bacillus subtilis MTCC 441 at 1000 ug/ml after 48 hr by cup-plate method; details: MTCC 441, 48 h, read-out: DIZ
Escherichia coli [38] = assay: Antibacterial activity against Escherichia coli MTCC 1573 at 100 ug/ml after 48 hr by cup-plate method; details: MTCC 1573, 48 h, read-out: DIZ
Staphylococcus aureus [39] = assay: Antibacterial activity against Staphylococcus aureus MTCC 1430 after 24 to 48 hr by tube dilution method
Micrococcus luteus [40] = assay: Antibacterial activity against Micrococcus luteus MTCC 1538 after 24 to 48 hr by tube dilution method
Bacillus pumilus [41] = assay: Antibacterial activity against Bacillus pumilus MTCC 1456 at 1250 ug/ml after 48 hr by cup-plate method; details: MTCC 1456, 48 h, read-out: DIZ
Penicillium chrysogenum [42] = assay: Antifungal activity against Penicillium chrysogenum MTCC 161 at 500 ug/ml after 48 hr by cup-plate method; details: MTCC 161, 48 h, read-out: DIZ
Staphylococcus aureus [43] = assay: Antibacterial activity against Staphylococcus aureus MTCC 1430 at 1250 ug/ml after 48 hr by cup-plate method; details: MTCC 1430, 48 h, read-out: DIZ
Micrococcus luteus [44] = assay: Antibacterial activity against Micrococcus luteus MTCC 1538 at 750 ug/ml after 48 hr by cup-plate method; details: MTCC 1538, 48 h, read-out: DIZ

O=[N+]([O-])c1ccc(C2CC(c3cccc4ccccc34)=NN2c2ccc([N+](=O)[O-])cc2)cc1 (centres undefined)
MIC (Pseudomonas fluorescens [1]): 30 µg/mL (≈ 68.4 µM)
zone of inhibition at 500 µg/mL (Pseudomonas fluorescens [2]): 11 mm
zone of inhibition at 750 µg/mL (Bacillus subtilis [3]): 15 mm
zone of inhibition at 250 µg/mL (Escherichia coli [4]): 11 mm
zone of inhibition at 250 µg/mL (Bacillus pumilus [5]): 8 mm
zone of inhibition at 500 µg/mL (Pseudomonas aeruginosa [6]): 11 mm
zone of inhibition at 1250 µg/mL (Escherichia coli [7]): 17 mm
zone of inhibition at 1000 µg/mL (Escherichia coli [8]): 15 mm
zone of inhibition at 1250 µg/mL (Pseudomonas aeruginosa [9]): 19 mm
zone of inhibition at 750 µg/mL (Staphylococcus aureus [10]): 11 mm
MIC (Pseudomonas aeruginosa [11]): 30 µg/mL (≈ 68.4 µM)
zone of inhibition at 500 µg/mL (Bacillus subtilis [12]): 13 mm
zone of inhibition at 250 µg/mL (Pseudomonas aeruginosa [13]): 10 mm
zone of inhibition at 1250 µg/mL (Aspergillus niger [14]): 25 mm
zone of inhibition at 500 µg/mL (Bacillus pumilus [15]): 10 mm
zone of inhibition at 500 µg/mL (Staphylococcus aureus [16]): 10 mm
MIC (Bacillus subtilis [17]): 50 µg/mL (≈ 114 µM)
zone of inhibition at 750 µg/mL (Pseudomonas fluorescens [18]): 14 mm
zone of inhibition at 1000 µg/mL (Pseudomonas aeruginosa [19]): 16 mm
zone of inhibition at 100 µg/mL (Pseudomonas aeruginosa [20]): 9 mm
MIC (Bacillus pumilus [21]): 50 µg/mL (≈ 114 µM)
zone of inhibition at 250 µg/mL (Bacillus subtilis [22]): 12 mm
zone of inhibition at 750 µg/mL (Pseudomonas aeruginosa [23]): 13 mm
zone of inhibition at 1000 µg/mL (Staphylococcus aureus [24]): 12 mm
zone of inhibition at 1250 µg/mL (Bacillus subtilis [25]): 19 mm
zone of inhibition at 250 µg/mL (Staphylococcus aureus [26]): 9 mm
zone of inhibition at 1000 µg/mL (Aspergillus niger [27]): 20 mm
zone of inhibition at 100 µg/mL (Bacillus subtilis [28]): 11 mm
zone of inhibition at 1000 µg/mL (Penicillium chrysogenum [29]): 15 mm
zone of inhibition at 250 µg/mL (Micrococcus luteus [30]): 9 mm
zone of inhibition at 250 µg/mL (Aspergillus niger [31]): 13 mm
zone of inhibition at 750 µg/mL (Escherichia coli [32]): 13 mm
zone of inhibition at 500 µg/mL (Escherichia coli [33]): 12 mm
zone of inhibition at 1250 µg/mL (Penicillium chrysogenum [34]): 17 mm
zone of inhibition at 500 µg/mL (Aspergillus niger [35]): 14 mm
zone of inhibition at 1250 µg/mL (Micrococcus luteus [36]): 15 mm
zone of inhibition at 1000 µg/mL (Bacillus subtilis [37]): 17 mm
zone of inhibition at 100 µg/mL (Escherichia coli [38]): 10 mm
MIC (Staphylococcus aureus [39]): 200 µg/mL (≈ 456 µM)
MIC (Micrococcus luteus [40]): 150 µg/mL (≈ 342 µM)
zone of inhibition at 1250 µg/mL (Bacillus pumilus [41]): 20 mm
zone of inhibition at 500 µg/mL (Penicillium chrysogenum [42]): 12 mm
zone of inhibition at 1250 µg/mL (Staphylococcus aureus [43]): 13 mm
zone of inhibition at 750 µg/mL (Micrococcus luteus [44]): 12 mm
